Source: PubChem BioAssay (NCI)
Where “and” joins values, the source holds several entries; their conditions need not be identical. Identical values can stand only once.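 In this assay, cells in 96-well plates receive the compound at five concentrations for 48 hours. Endpoints are linearly interpolated between the surrounding concentrations. GI50 marks 50% less growth. TGI: concentration producing complete growth inhibition.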 Where a SMILES comes first, the peptide text is derived from it. [ ]: non-standard residue; d: D form. The star is where a group is joined. ξ: configuration not given here. ξD = NC(CC(=O)O)C(=O)O; Boc = CC(C)(C)OC(=O)*; Aib = CC(C)(N)C(=O)O; OBn = c1ccc(CO*)cc1

Columns and labels:
Assay in all cases: NCI-60 cell line screen, 48 h
U251 CNS = test system: U251 CNS
CAKI-1 renal = test system: CAKI-1 renal
SW-620 colon = test system: SW-620 colon
UO-31 renal = test system: UO-31 renal
MALME-3M melanoma = test system: MALME-3M melanoma
HL-60(TB) leukemia = test system: HL-60(TB) leukemia
ACHN renal = test system: ACHN renal
K-562 leukemia = test system: K-562 leukemia
HCT-116 colon = test system: HCT-116 colon
OVCAR-3 ovarian = test system: OVCAR-3 ovarian
SNB-19 CNS = test system: SNB-19 CNS
SK-OV-3 ovarian = test system: SK-OV-3 ovarian
MOLT-4 leukemia = test system: MOLT-4 leukemia
SNB-75 CNS = test system: SNB-75 CNS

Row | SMILES | TGI (U251 CNS) [µM] | TGI (CAKI-1 renal) [µM] | TGI (SW-620 colon) [µM] | TGI (UO-31 renal) [µM] | TGI (MALME-3M melanoma) [µM] | TGI (HL-60(TB) leukemia) [µM] | TGI (ACHN renal) [µM] | TGI (K-562 leukemia) [µM] | TGI (HCT-116 colon) | TGI (OVCAR-3 ovarian) [µM] | TGI (SNB-19 CNS) [µM] | TGI (SK-OV-3 ovarian) [µM] | TGI (MOLT-4 leukemia) [µM] | TGI (SNB-75 CNS) [µM] | GI50 (UO-31 renal) [µM] | GI50 (SNB-19 CNS) [µM]
1 | CC(=O)OCC12CC(CC1OC(C)=O)c1ccccc12 (stereo not given) | > 100 | > 100 | > 100 | > 100 | > 100 | > 100 | > 100 | > 100 | > 100 µM | > 100 | > 100 | > 100 | > 100 |  |  | 
2 | CC1(C)CN(CC(=O)O)CC(Cc2ccc(OCC(=O)O)cc2)N(CC(=O)O)CC(C)(C)SS1 (stereo not given) | > 100 | > 100 | > 100 | > 100 | > 100 |  | > 100 | > 100 | > 100 µM | > 100 | > 100 | > 100 | > 100 | > 100 |  | 
3 | CC(C)(C)OC(=O)NC(CC(=O)OCc1ccccc1)C(=O)NC(C)(C)C(N)=O (stereo not given) (Boc-[ξD](OBn)-[Aib]-NH2) | > 100 | > 100 | > 100 | > 100 | > 100 |  | > 100 | > 100 | > 100 µM | > 100 | > 100 | > 100 | > 100 | > 100 |  | 
4 | CC(C)CC(=O)CC(C)[C@]1(CCCOCc2ccccc2)C(=O)N2CCC3(C[C@@]24CCC[C@H]41)OCCO3 (stereo not given in full) | > 10 | > 10 | > 10 | > 10 |  | > 10 |  | > 10 |  | > 10 | > 10 | > 10 | > 10 |  |  | 
5 | COc1cc2c(c(OC)c1OC)-c1ccc(SC)c(=O)cc1[C@@H](NC(=O)c1cccc([N+](=O)[O-])c1)CC2 | 0.0577 |  | > 100 | > 100 |  |  | > 100 | > 100 | 0.0439 µM and 0.117 µM | 0.0404 |  | 0.0638 | > 100 |  | 0.0276 | 0.0268
6 | Cc1ccc(C(=O)NC2CCCCC2)cc1N=NN(C)C | > 100 | > 100 | > 100 | > 100 |  |  | > 100 |  | > 100 µM | > 100 | > 100 |  |  |  |  | 
7 | NC(=O)N/N=C(\CC1OC(=O)c2ccccc21)c1ccc([N+](=O)[O-])cc1 (stereo not given) | 39.5 | 71.3 | > 100 | > 100 | 73.7 | > 100 | > 100 |  | 74.2 µM | > 100 | 51.6 |  | > 100 | 78.6 |  | 
8 | CCOC(=O)C(=[N+]=[N-])C(=O)CSC#N | > 100 | > 100 | > 100 | > 100 | > 100 | > 100 | 55.3 |  | > 100 µM |  | > 100 | > 100 | > 100 |  |  | 
9 | Nc1ccc(Oc2ccc(C34CC5CC(C3)CC(c3ccc(Oc6ccc(N)cc6C(F)(F)F)cc3)(C5)C4)cc2)c(C(F)(F)F)c1 | 27.6 | > 100 | > 100 | > 100 | 58.5 | > 100 | > 100 | > 100 | > 100 µM | 37.7 | 48.9 | 35.4 | > 100 |  |  | 
10 | Cc1ccc(S(=O)(=O)C2=Cc3ccccc3C2(O)c2ccccc2)cc1 (stereo not given) | 87.7 |  | > 100 |  |  | 29.6 | > 100 | 76.5 | > 100 µM |  | > 100 | 79.2 | > 100 | > 100 |  | 
11 | CC(=O)NC1=NC(=O)/C(=C/c2ccccc2Cl)N1C | > 100 | > 100 | > 100 | > 100 |  | > 100 | > 100 |  | > 100 µM | > 100 | > 100 | > 100 | > 100 | > 100 |  | 
12 | CN(C)c1ccc(N=C2N=C(Nc3ccccc3)C(=Nc3ccccc3)S2)cc1 |  | > 100 | > 100 |  | > 100 | > 100 | > 100 |  | > 100 µM | > 100 | > 100 | > 100 | > 100 | 81.4 |  | 
13 | N#CC(NNC(=O)Cc1ccccc1)c1ccc([N+](=O)[O-])cc1 (stereo not given) | > 100 |  | > 100 | > 100 | > 100 | > 100 | > 100 | > 100 | > 100 µM |  |  | > 100 | > 100 | > 100 |  | 
14 | CC1(O)CC2C(CC1SC1CC3C(CC1(C)O)C3(C)C)C2(C)C (stereo not given) | > 100 |  |  | > 100 | > 100 | 58.5 | > 100 | > 100 | > 100 µM | > 100 |  | > 100 | > 100 | 80.1 |  | 
15 | Cn1c(-c2ccccc2)cc(-c2ccc3c(c2)OCO3)c1-c1ccsc1 | > 100 | > 100 | > 100 | > 100 |  | > 100 | > 100 | > 100 | > 100 µM | > 100 | > 100 | > 100 | > 100 | > 100 |  | 
16 | Cc1cccc(N=Nc2c(C)nn(C(=O)CC(=O)Nc3ccc(Cl)cc3)c2C)c1 | > 100 | > 100 | > 100 | > 100 |  | > 100 | > 100 |  | > 100 µM | > 100 | > 100 | > 100 | > 100 | 95.9 |  | 
17 | CC(=O)NC(CCCCNCc1ccccc1)C(=O)NCc1ccccc1 (stereo not given) | > 100 | > 100 | > 100 | > 100 | > 100 |  | > 100 | > 100 | > 100 µM | > 100 | > 100 | > 100 | > 100 | > 100 |  | 
18 | Cc1cccc2c(N)c3cccc(C(=O)NCC[N+](C)(C)Cc4ccccc4[N+](=O)[O-])c3nc12 | > 27.6 | > 100 | > 53 | > 28.3 | 25.8 |  | 13.9 | > 31.8 | > 100 µM | > 91.4 | > 100 | > 95.1 | 9.34 | 8.82 |  | 
